Legend:
[1] = system: SMN2 minigene mRNA (SMN2-A minigene) in HEK293H cells; experiment: SMN2 minigene mRNA splicing RT-qPCR assay in cultured cells; assay type: cell-based, human; settings: Homo sapiens, HEK293-H; concentration increasing full length SMN2 mRNA 1.5-fold relative to vehicle-treated cells; HEK293H cells with SMN2-A minigene, 24 hours, 7-point concentration data; read-out: EC1.5x for production of full length SMN2 mRNA
Procedure, shortened: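 EC1.5× values derive from a 24 h treatment of SMN2-A minigene HEK293H cells and GAPDH-normalized RT-qPCR of exon 7-included minigene mRNA relative to vehicle-treated cells.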

[2] = system: Smn protein in SMA patient fibroblast cells (GM03813); experiment: Smn protein assay in cultured cells (SMN HTRF); assay type: cell-based, human; settings: SMA patient fibroblast cells, 48 hours; for maximum fold (Fold) increase of Smn protein: 7-point concentration data, fold relative to vehicle control; for EC1.5x for Smn protein expression: 7-point concentration curve, SMN HTRF, concentration producing 1.5 times Smn protein vs DMSO vehicle control
Procedure, shortened: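 Cells were cultured 72 h, seeded at 5,000/well and dosed with seven concentrations (3.16-fold apart) for 48 h. HTRF on lysates, read at 665 and 620 nm, gave blank-corrected ΔF values relative to DMSO. Potency is reported as EC1.5×, efficacy as maximal fold Smn increase.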

Row | SMILES | melting point [°C] | EC (1.5-fold increase) [1] [µM] | maximum fold (Fold) increase of Smn protein [2] | EC1.5x for Smn protein expression [2]
1 | Cc1cn2cc(-c3cc(=O)n4cc(N5CCN(CCOCCO)[C@@H](C)C5)ccc4n3)cc(F)c2n1 [Compound 540, 2-(8-fluoro-2-methylimidazo[1,2-a]pyridin-6-yl)-7-{(3S)-4-[2-(2-hydroxyethoxy)ethyl]-3-methylpiperazin-1-yl}-4H-pyrido[1,2-a]pyrimidin-4-one] | 175 to 181 | < 0.1 | *** (a fold increase between >1.35 and ≤1.5 is indicated by three stars (***)) | 
2 | Cc1cn2cc(-c3cc(=O)n4cc(N5CCN(C(C)C)[C@@H](C)C5)ccc4n3)cc(F)c2n1 [Compound 541, 2-(8-fluoro-2-methylimidazo[1,2-a]pyridin-6-yl)-7-[(3S)-3-methyl-4-(propan-2-yl)piperazin-1-yl]-4H-pyrido[1,2-a]pyrimidin-4-one] | 191 to 194 | 0.1 to 0.3 | ***** (a fold increase >1.65 is indicated by five stars (*****)) | *** (an EC1.5× between >0.3 μM and ≤1 μM is indicated by three stars (***))
3 | Cc1cn2cc(-c3cc(=O)n4cc(N5CCN(C6CC6)[C@@H](C)C5)ccc4n3)cc(F)c2n1 [Compound 542, 7-[(3S)-4-cyclopropyl-3-methylpiperazin-1-yl]-2-(8-fluoro-2-methylimidazo[1,2-a]pyridin-6-yl)-4H-pyrido[1,2-a]pyrimidin-4-one] | 242 to 246 | < 0.1 | ***** (a fold increase >1.65 is indicated by five stars (*****)) | *** (an EC1.5× between >0.3 μM and ≤1 μM is indicated by three stars (***))
4 | Cc1cn2cc(-c3cc(=O)n4cc(N5CCN(C6CCC6)[C@@H](C)C5)ccc4n3)cc(F)c2n1 [Compound 543, 7-[(3S)-4-cyclobutyl-3-methylpiperazin-1-yl]-2-(8-fluoro-2-methylimidazo[1,2-a]pyridin-6-yl)-4H-pyrido[1,2-a]pyrimidin-4-one] | 264 to 267 | < 0.1 | ***** (a fold increase >1.65 is indicated by five stars (*****)) | **** (an EC1.5x≤0.3 μM is indicated by four stars (****))
5 | C[C@@H]1CN(c2ccc3nc(-c4ccc5c(cnn5C)c4)cc(=O)n3c2)CCN1 [Compound 545, 2-(1-methyl-1H-indazol-5-yl)-7-[(3R)-3-methylpiperazin-1-yl]-4H-pyrido[1,2-a]pyrimidin-4-one] | 190 to 192 | 0.1 to 0.3 | ***** (a fold increase >1.65 is indicated by five stars (*****)) | **** (an EC1.5x≤0.3 μM is indicated by four stars (****))
6 | C[C@@H]1CN(c2ccc3nc(-c4ccc5c(cnn5C)c4)cc(=O)n3c2)C[C@H](C)N1 [Compound 552, 7-[(3R,5S)-3,5-dimethylpiperazin-1-yl]-2-(1-methyl-1H-indazol-5-yl)-4H-pyrido[1,2-a]pyrimidin-4-one] | 240 to 242 | 0.3 to 1 | **** (a fold increase between >1.5 and ≤1.65 is indicated by four stars (****)) | *** (an EC1.5× between >0.3 μM and ≤1 μM is indicated by three stars (***))
7 | C[C@H]1CN(c2ccc3nc(-c4ccc5c(cnn5C)c4)cc(=O)n3c2)CCN1 [Compound 553, 2-(1-methyl-1H-indazol-5-yl)-7-[(3S)-3-methylpiperazin-1-yl]-4H-pyrido[1,2-a]pyrimidin-4-one] | 206 to 208 | 0.1 to 0.3 | ***** (a fold increase >1.65 is indicated by five stars (*****)) | **** (an EC1.5x≤0.3 μM is indicated by four stars (****))
8 | Cc1cn2cc(-c3cc(=O)n4cc(C5CCN(C(C)C)CC5)ccc4n3)ccc2n1 [Compound 554, 2-(2-methylimidazo[1,2-a]pyridin-6-yl)-7-[1-(propan-2-yl)piperidin-4-yl]-4H-pyrido[1,2-a]pyrimidin-4-one] | 218 to 220 | 0.1 to 0.3 | ***** (a fold increase >1.65 is indicated by five stars (*****)) | **** (an EC1.5x≤0.3 μM is indicated by four stars (****))
9 | Cc1cn2ccc(-c3cc(=O)n4cc(N5CCNCC5)ccc4n3)cc2n1 [Compound 555, 2-(2-methylimidazo[1,2-a]pyridin-7-yl)-7-(piperazin-1-yl)-4H-pyrido[1,2-a]pyrimidin-4-one] | 272 to 277 | 1 to 3 | *** (a fold increase between >1.35 and ≤1.5 is indicated by three stars (***)) | ** (an EC1.5× between >1 μM and ≤3 μM is indicated by two stars (**))
10 | Cc1cn2ccc(-c3cc(=O)n4cc(C5CCNCC5)ccc4n3)cc2n1 [Compound 556, 2-(2-methylimidazo[1,2-a]pyridin-7-yl)-7-(piperidin-4-yl)-4H-pyrido[1,2-a]pyrimidin-4-one] | 257 to 260 | 0.3 to 1 | *** (a fold increase between >1.35 and ≤1.5 is indicated by three stars (***)) | ** (an EC1.5× between >1 μM and ≤3 μM is indicated by two stars (**))
11 | Cc1cn2ccc(-c3cc(=O)n4cc(N5CCN(C)CC5)ccc4n3)cc2n1 [Compound 557, 2-(2-methylimidazo[1,2-a]pyridin-7-yl)-7-(4-methylpiperazin-1-yl)-4H-pyrido[1,2-a]pyrimidin-4-one] | 285 to 288 | 1 to 3 | * (A maximum fold increase of ≤1.2 is indicated by one star (*)) | 
12 | CCN1CCN(c2ccc3nc(-c4ccn5cc(C)nc5c4)cc(=O)n3c2)CC1 [Compound 558, 7-(4-ethylpiperazin-1-yl)-2-(2-methylimidazo[1,2-a]pyridin-7-yl)-4H-pyrido[1,2-a]pyrimidin-4-one] | 219 to 222 | 1 to 3 | ** (a fold increase between >1.2 and ≤1.35 is indicated by two stars (**)) | 

Further lines, with some results ahead:

Row | melting point [°C] | SMILES | EC (1.5-fold increase) [1] [µM] | maximum fold (Fold) increase of Smn protein [2] | EC1.5x for Smn protein expression [2]
13 | 230 to 233 | CCc1nc(C)cn2nc(-c3cc(=O)n4cc(N5CCNCC5)ccc4n3)cc12 [Compound 546, 2-(4-ethyl-6-methylpyrazolo[1,5-a]pyrazin-2-yl)-7-(piperazin-1-yl)-4H-pyrido[1,2-a]pyrimidin-4-one] | < 0.1 | ***** (a fold increase >1.65 is indicated by five stars (*****)) | **** (an EC1.5x≤0.3 μM is indicated by four stars (****))
14 | 250 to 252 | CCc1nc(C)cn2nc(-c3cc(=O)n4cc(N5CCN(C)CC5)ccc4n3)cc12 [Compound 547, 2-(4-ethyl-6-methylpyrazolo[1,5-a]pyrazin-2-yl)-7-(4-methylpiperazin-1-yl)-4H-pyrido[1,2-a]pyrimidin-4-one] | < 0.1 | ***** (a fold increase >1.65 is indicated by five stars (*****)) | **** (an EC1.5x≤0.3 μM is indicated by four stars (****))
15 | 250 to 252 | CCc1nc(C)cn2nc(-c3cc(=O)n4cc(N5CCN(CC)CC5)ccc4n3)cc12 [Compound 548, 2-(4-ethyl-6-methylpyrazolo[1,5-a]pyrazin-2-yl)-7-(4-ethylpiperazin-1-yl)-4H-pyrido[1,2-a]pyrimidin-4-one] | < 0.1 | ***** (a fold increase >1.65 is indicated by five stars (*****)) | **** (an EC1.5x≤0.3 μM is indicated by four stars (****))
16 | 240 to 242 | CCc1nc(C)cn2nc(-c3cc(=O)n4cc(N5CCN(CCO)CC5)ccc4n3)cc12 [Compound 549, 2-(4-ethyl-6-methylpyrazolo[1,5-a]pyrazin-2-yl)-7-[4-(2-hydroxyethyl)piperazin-1-yl]-4H-pyrido[1,2-a]pyrimidin-4-one] | < 0.1 | ***** (a fold increase >1.65 is indicated by five stars (*****)) | **** (an EC1.5x≤0.3 μM is indicated by four stars (****))
17 | 258 to 260 | CCc1nc(C)cn2nc(-c3cc(=O)n4cc(N5CCC(N(C)C)CC5)ccc4n3)cc12 [Compound 550, 7-[4-(dimethylamino)piperidin-1-yl]-2-(4-ethyl-6-methylpyrazolo[1,5-a]pyrazin-2-yl)-4H-pyrido[1,2-a]pyrimidin-4-one] | < 0.1 | ***** (a fold increase >1.65 is indicated by five stars (*****)) | **** (an EC1.5x≤0.3 μM is indicated by four stars (****))
18 | 232 to 235 | CCc1nc(C)cn2nc(-c3cc(=O)n4cc(N5CCC(N(CC)CC)CC5)ccc4n3)cc12 [Compound 551, 7-[4-(diethylamino)piperidin-1-yl]-2-(4-ethyl-6-methylpyrazolo[1,5-a]pyrazin-2-yl)-4H-pyrido[1,2-a]pyrimidin-4-one] | 0.1 to 0.3 | ***** (a fold increase >1.65 is indicated by five stars (*****)) | **** (an EC1.5x≤0.3 μM is indicated by four stars (****))

— patent US11753407B2, “Compounds for treating spinal muscular atrophy” (PTC Therapeutics, Inc., priority 2012, dated 2023)
